Source: ChEMBL document CHEMBL3991601, “The target landscape of clinical kinase drugs” (Science, 2017)
The source made the active and inactive calls.

What was measured:
[1] = target: Serine/threonine-protein kinase 38-like (Homo sapiens, UniProt Q9Y2H1)
Misshapen-like kinase 1 = Misshapen-like kinase 1 (Homo sapiens, UniProt Q8N4C8)
[2] = target: Protein kinase C beta type (Homo sapiens, UniProt P05771)
[3] = target: Proto-oncogene tyrosine-protein kinase receptor Ret (Homo sapiens, UniProt P07949)
Proto-oncogene tyrosine-protein kinase receptor Ret, sequence (P07949 whole entry): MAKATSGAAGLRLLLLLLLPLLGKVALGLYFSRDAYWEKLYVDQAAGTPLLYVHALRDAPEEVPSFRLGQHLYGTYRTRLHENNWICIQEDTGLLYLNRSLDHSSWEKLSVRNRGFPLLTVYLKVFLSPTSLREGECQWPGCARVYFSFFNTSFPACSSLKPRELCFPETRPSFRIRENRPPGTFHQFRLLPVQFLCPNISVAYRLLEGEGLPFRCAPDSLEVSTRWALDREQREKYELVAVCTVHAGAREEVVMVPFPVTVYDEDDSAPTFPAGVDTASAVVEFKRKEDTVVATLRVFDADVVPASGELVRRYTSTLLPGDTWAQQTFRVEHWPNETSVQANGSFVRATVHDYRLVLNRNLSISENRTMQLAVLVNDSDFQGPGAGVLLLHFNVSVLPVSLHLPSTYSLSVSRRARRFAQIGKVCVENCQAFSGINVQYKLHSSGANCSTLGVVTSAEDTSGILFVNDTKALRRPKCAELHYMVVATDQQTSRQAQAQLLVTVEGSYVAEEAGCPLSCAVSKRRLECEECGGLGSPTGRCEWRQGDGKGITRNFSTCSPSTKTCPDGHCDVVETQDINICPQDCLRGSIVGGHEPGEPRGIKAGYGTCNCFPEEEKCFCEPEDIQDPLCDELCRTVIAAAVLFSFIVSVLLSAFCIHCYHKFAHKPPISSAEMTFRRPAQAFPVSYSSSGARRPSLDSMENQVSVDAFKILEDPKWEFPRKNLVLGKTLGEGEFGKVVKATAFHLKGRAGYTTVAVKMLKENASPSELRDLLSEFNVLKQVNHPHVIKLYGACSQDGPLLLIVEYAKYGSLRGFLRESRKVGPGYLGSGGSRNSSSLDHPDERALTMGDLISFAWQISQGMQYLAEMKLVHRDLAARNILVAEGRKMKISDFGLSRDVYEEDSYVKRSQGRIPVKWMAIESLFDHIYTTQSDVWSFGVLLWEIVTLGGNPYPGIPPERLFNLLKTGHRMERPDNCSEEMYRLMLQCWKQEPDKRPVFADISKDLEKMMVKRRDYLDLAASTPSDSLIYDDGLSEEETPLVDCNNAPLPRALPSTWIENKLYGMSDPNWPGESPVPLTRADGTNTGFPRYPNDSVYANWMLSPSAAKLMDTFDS

[4] = target: T1, Long-chain-fatty-acid--CoA ligase 5 (Homo sapiens, UniProt Q9ULC5)
T1 sequence (Q9ULC5 whole entry): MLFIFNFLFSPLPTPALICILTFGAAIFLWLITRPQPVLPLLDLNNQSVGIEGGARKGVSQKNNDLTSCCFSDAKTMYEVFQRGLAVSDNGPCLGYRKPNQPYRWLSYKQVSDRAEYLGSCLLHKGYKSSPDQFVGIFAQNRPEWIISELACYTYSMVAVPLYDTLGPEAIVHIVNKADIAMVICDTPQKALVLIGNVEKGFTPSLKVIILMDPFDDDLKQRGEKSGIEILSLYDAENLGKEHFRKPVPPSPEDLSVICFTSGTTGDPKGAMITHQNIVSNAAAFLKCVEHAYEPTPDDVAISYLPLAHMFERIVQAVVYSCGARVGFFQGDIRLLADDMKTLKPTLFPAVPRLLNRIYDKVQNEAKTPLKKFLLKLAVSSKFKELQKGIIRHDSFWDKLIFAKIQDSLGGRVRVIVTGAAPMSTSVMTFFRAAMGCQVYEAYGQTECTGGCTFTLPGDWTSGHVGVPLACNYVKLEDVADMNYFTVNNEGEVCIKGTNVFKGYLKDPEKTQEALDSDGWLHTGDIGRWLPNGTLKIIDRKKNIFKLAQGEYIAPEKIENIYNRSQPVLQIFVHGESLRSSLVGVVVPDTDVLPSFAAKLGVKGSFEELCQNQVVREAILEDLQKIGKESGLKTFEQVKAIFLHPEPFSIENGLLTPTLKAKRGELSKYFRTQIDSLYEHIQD

[5] = target: Dual specificity testis-specific protein kinase 2 (Homo sapiens, UniProt Q96S53)
Dual specificity testis-specific protein kinase 2, sequence (Q96S53 whole entry): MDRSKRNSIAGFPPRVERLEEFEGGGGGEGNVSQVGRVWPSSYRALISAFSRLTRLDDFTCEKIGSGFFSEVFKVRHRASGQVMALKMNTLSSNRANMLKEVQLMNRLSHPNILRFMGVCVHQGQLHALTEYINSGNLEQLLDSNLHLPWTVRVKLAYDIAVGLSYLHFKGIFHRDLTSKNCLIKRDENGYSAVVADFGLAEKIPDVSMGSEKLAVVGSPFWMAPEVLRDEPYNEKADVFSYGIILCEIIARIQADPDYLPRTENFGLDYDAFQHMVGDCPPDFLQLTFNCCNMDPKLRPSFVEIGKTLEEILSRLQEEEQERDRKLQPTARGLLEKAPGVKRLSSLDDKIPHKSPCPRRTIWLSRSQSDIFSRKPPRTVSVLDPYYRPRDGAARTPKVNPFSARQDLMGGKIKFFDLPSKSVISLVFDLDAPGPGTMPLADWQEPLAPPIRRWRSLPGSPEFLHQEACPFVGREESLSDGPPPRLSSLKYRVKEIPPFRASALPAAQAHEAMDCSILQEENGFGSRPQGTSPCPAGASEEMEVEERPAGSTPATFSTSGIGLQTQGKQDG

Activin receptor type-1B = target: T2, Activin receptor type-1B (Homo sapiens, UniProt P36896)
T2 sequence (P36896 whole entry): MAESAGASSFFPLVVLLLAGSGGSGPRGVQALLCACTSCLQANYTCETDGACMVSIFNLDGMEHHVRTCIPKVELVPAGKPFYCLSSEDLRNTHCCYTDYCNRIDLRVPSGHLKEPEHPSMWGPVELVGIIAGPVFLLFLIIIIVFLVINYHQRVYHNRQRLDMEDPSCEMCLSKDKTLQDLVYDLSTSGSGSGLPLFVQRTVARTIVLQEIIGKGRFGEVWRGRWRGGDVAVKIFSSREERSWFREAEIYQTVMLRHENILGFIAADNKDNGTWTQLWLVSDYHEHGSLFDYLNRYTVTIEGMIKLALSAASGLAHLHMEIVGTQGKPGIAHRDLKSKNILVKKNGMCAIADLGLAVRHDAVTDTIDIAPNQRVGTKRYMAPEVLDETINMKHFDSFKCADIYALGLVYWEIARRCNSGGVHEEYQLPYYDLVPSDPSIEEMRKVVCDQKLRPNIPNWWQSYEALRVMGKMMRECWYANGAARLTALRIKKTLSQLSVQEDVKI

[6] = target: Mitogen-activated protein kinase 14 (Homo sapiens, UniProt Q16539)
Mitogen-activated protein kinase 14, sequence (Q16539 whole entry): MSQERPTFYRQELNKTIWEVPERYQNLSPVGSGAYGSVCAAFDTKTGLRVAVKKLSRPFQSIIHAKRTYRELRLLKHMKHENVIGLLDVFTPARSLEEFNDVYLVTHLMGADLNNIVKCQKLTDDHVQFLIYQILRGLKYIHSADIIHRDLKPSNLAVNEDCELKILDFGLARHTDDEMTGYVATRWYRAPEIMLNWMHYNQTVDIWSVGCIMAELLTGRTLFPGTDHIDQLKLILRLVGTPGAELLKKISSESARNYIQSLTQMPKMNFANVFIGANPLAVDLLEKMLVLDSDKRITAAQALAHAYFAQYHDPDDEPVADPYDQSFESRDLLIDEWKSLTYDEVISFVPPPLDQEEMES

Aurora kinase B = Aurora kinase B (Homo sapiens, UniProt Q96GD4)
[7] = target: Serine/threonine-protein kinase Nek7 (Homo sapiens, UniProt Q8TDX7)
Serine/threonine-protein kinase Nek7, sequence (Q8TDX7 whole entry): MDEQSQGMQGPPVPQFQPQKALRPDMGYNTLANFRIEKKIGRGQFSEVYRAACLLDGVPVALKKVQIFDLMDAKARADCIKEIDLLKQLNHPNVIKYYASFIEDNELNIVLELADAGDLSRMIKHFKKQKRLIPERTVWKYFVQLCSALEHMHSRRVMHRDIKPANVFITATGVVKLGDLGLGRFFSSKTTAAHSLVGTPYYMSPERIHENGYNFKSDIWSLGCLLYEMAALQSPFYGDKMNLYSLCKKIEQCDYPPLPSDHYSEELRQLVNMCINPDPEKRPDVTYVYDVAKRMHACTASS

[8] = target: T3, Isoleucine--tRNA ligase, mitochondrial (Homo sapiens, UniProt Q9NSE4)
T3 sequence (Q9NSE4 whole entry): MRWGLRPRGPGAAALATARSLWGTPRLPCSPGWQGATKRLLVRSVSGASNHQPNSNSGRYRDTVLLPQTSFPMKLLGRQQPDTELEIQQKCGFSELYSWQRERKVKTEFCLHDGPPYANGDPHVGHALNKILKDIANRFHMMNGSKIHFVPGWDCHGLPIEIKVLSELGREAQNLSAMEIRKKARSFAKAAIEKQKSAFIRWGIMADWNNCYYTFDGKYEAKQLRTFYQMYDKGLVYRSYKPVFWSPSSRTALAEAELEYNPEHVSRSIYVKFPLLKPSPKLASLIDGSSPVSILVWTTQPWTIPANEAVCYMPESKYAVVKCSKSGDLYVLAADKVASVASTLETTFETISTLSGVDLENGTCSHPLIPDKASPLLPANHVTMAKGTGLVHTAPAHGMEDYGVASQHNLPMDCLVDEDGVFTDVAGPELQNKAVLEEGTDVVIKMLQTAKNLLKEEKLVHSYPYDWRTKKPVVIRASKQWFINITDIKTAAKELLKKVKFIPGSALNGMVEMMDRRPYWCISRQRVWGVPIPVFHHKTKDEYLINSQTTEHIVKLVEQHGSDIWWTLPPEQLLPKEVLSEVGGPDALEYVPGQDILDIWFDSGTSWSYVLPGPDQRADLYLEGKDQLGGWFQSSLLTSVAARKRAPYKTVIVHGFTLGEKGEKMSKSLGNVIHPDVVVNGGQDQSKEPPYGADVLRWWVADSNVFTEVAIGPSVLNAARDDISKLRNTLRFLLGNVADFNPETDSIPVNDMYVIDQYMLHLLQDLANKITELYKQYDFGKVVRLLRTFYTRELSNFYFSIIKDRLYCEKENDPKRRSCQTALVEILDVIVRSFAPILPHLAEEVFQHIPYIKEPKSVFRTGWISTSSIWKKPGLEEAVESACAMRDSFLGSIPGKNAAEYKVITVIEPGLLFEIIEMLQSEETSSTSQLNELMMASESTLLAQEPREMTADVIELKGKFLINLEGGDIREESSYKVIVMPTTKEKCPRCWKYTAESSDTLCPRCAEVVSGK
Also: in the data inactive means no Kd found up to 30 µM.

Serine/threonine-protein kinase 38-like, sequence (Q9Y2H1 whole entry): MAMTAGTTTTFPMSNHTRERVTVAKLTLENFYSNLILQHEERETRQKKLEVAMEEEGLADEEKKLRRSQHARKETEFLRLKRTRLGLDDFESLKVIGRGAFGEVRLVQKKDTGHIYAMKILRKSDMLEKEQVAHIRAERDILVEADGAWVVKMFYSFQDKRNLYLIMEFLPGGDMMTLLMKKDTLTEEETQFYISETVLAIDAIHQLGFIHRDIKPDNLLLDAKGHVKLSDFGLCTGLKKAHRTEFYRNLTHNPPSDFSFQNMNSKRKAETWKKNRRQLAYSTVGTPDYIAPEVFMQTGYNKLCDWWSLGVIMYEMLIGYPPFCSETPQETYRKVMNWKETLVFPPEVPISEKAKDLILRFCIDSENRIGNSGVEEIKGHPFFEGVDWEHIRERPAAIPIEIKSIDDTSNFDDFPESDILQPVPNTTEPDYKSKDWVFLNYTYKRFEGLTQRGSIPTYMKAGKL
Protein kinase C beta type, sequence (P05771 whole entry): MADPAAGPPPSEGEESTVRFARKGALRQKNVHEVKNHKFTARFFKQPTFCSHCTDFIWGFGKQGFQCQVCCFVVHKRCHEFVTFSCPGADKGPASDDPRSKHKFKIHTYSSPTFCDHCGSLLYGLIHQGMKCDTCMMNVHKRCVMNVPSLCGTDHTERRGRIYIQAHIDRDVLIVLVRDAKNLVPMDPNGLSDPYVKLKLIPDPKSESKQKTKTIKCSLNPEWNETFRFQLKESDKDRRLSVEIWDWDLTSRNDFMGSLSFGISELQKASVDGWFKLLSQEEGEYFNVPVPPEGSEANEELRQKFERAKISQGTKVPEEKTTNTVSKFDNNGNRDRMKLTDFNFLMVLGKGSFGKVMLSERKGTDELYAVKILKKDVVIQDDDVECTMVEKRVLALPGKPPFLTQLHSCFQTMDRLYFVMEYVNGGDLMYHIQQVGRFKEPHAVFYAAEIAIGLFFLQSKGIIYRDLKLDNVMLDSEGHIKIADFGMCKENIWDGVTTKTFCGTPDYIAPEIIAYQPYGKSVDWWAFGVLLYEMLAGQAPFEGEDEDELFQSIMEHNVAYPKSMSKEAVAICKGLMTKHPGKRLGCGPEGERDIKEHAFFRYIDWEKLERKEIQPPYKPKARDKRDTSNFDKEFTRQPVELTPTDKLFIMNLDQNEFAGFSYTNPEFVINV
Misshapen-like kinase 1, sequence (Q8N4C8 whole entry): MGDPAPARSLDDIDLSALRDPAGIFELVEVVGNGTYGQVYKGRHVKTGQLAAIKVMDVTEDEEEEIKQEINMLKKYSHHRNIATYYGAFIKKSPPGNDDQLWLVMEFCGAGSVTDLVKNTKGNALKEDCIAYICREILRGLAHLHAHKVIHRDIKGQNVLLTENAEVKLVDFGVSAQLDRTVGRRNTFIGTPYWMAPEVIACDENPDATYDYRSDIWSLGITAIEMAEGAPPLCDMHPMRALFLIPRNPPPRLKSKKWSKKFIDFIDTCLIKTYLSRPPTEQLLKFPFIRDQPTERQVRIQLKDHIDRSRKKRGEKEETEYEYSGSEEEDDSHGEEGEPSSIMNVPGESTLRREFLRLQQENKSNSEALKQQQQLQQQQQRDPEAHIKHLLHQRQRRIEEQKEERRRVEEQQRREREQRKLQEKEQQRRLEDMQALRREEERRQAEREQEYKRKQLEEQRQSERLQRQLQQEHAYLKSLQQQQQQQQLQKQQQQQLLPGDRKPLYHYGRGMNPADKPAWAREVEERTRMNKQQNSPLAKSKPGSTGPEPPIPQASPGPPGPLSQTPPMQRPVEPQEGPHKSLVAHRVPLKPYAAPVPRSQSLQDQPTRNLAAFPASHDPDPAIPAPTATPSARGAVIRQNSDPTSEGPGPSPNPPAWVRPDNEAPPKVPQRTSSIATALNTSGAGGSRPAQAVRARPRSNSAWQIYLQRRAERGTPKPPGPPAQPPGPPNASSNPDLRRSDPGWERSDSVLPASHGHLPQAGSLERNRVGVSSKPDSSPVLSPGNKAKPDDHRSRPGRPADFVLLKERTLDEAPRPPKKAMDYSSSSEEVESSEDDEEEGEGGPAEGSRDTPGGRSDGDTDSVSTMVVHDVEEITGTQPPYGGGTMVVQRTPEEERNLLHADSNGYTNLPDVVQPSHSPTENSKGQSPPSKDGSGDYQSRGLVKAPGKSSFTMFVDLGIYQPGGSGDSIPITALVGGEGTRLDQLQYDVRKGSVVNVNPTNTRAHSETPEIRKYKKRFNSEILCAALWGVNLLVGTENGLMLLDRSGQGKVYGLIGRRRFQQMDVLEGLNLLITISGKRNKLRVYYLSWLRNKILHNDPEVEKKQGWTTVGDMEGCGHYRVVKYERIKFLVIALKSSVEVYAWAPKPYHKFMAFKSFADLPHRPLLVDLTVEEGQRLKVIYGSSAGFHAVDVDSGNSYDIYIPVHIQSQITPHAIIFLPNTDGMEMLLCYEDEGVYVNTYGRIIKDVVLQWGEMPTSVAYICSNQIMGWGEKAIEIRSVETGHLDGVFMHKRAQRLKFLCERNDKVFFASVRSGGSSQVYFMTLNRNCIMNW

Kd [1]	Kd (Misshapen-like kinase 1)	Kd [2]	Kd [3]	Kd [4]	Kd [5]	Kd (Activin receptor type-1B)	Kd [6]	Kd (Aurora kinase B)	Kd [7]	Kd [8]	Compound
> 30 µM (inactive)	> 30 µM (inactive)	> 30 µM (inactive)	> 30 µM (inactive)	> 30 µM (inactive)	> 30 µM (inactive)	> 30 µM (inactive)	> 30 µM (inactive)	> 30 µM (inactive)	–	–	CC[C@H](Nc1ncnc2[nH]cnc12)c1nc2cccc(F)c2c(=O)n1-c1ccccc1 [IDELALISIB]
> 30 µM (inactive)	> 30 µM (inactive)	> 30 µM (inactive)	–	> 30 µM (inactive)	–	> 30 µM (inactive)	–	–	> 30 µM (inactive)	> 30 µM (inactive)	OCCn1cc(-c2cnc3nnn(Cc4ccc5ncccc5c4)c3n2)cn1 [PF-04217903]
> 30 µM (inactive)	> 30 µM (inactive)	> 30 µM (inactive)	> 30 µM (inactive)	> 30 µM (inactive)	–	> 30 µM (inactive)	> 30 µM (inactive)	> 30 µM (inactive)	–	> 30 µM (inactive)	O=c1sn(-c2cccc3ccccc23)c(=O)n1Cc1ccccc1 [TIDEGLUSIB]
> 30 µM (inactive)	> 30 µM (inactive)	> 30 µM (inactive)	–	> 30 µM (inactive)	> 30 µM (inactive)	> 30 µM (inactive)	–	–	> 30 µM (inactive)	> 30 µM (inactive)	CCc1cnn2c(NCc3ccc[n+]([O-])c3)cc(N3CCCC[C@H]3CCO)nc12 [DINACICLIB]
> 30 µM (inactive)	> 30 µM (inactive)	> 30 µM (inactive)	0.39 µM (active)	> 30 µM (inactive)	> 30 µM (inactive)	> 30 µM (inactive)	> 30 µM (inactive)	> 30 µM (inactive)	–	–	CNC(=O)CN1CCC(Oc2cc3c(Nc4cccc(Cl)c4F)ncnc3cc2OC)CC1 [SAPITINIB]
> 30 µM (inactive)	–	> 30 µM (inactive)	> 30 µM (inactive)	> 30 µM (inactive)	–	> 30 µM (inactive)	> 30 µM (inactive)	> 30 µM (inactive)	> 30 µM (inactive)	> 30 µM (inactive)	Cc1ccc(S(=O)(=O)Nc2nc3ccccc3nc2Nc2ccc3nsnc3c2)cc1
> 30 µM (inactive)	> 30 µM (inactive)	> 30 µM (inactive)	–	> 30 µM (inactive)	–	> 30 µM (inactive)	0.217 µM (active)	1.78 µM (active)	> 30 µM (inactive)	> 30 µM (inactive)	COc1cc2nccc(Oc3ccc(NC(=O)NC4CC4)c(Cl)c3)c2cc1C(N)=O [LENVATINIB]
> 30 µM (inactive)	> 30 µM (inactive)	> 30 µM (inactive)	> 30 µM (inactive)	–	> 30 µM (inactive)	> 30 µM (inactive)	> 30 µM (inactive)	> 30 µM (inactive)	> 30 µM (inactive)	> 30 µM (inactive)	O=C1NC(=O)/C(=C/c2ccc3nccc(-c4ccncc4)c3c2)S1 [GSK-1059615]
> 30 µM (inactive)	> 30 µM (inactive)	26.3 µM (active)	0.973 µM (active)	> 30 µM (inactive)	–	> 30 µM (inactive)	> 30 µM (inactive)	> 30 µM (inactive)	–	> 30 µM (inactive)	CCS(=O)(=O)N1CC(CC#N)(n2cc(-c3ncnc4[nH]ccc34)cn2)C1 [BARICITINIB]
> 30 µM (inactive)	> 30 µM (inactive)	> 30 µM (inactive)	> 30 µM (inactive)	1.69 µM	> 30 µM (inactive)	> 30 µM (inactive)	–	> 30 µM (inactive)	–	–	Cc1c(F)cc(C(=O)NC2CC2)cc1-c1ccc(C(=O)NCC(C)(C)C)cn1 [LOSMAPIMOD]
> 30 µM (inactive)	> 30 µM (inactive)	> 30 µM (inactive)	> 30 µM (inactive)	> 30 µM (inactive)	> 30 µM (inactive)	–	> 30 µM (inactive)	> 30 µM (inactive)	–	> 30 µM (inactive)	C[C@@H](c1ccc2nccn2c1)n1nnc2ncc(-c3cnn(C)c3)nc21 [SAVOLITINIB]
> 30 µM (inactive)	> 30 µM (inactive)	> 30 µM (inactive)	> 30 µM (inactive)	–	> 30 µM (inactive)	> 30 µM (inactive)	> 30 µM (inactive)	> 30 µM (inactive)	> 30 µM (inactive)	> 30 µM (inactive)	COc1ccc(-c2ccc3c(N4CCOC[C@@H]4C)nc(N4CCOC[C@@H]4C)nc3n2)cc1CO [AZD-8055]

Compound	Kd [1]	Kd (Misshapen-like kinase 1)	Kd [2]	Kd [3]	Kd [4]	Kd [5]	Kd (Activin receptor type-1B)	Kd [6]	Kd (Aurora kinase B)	Kd [7]	Kd [8]
C=CC(=O)N1CCC(Oc2cc3c(Nc4ccc(Cl)c(Cl)c4F)ncnc3cc2OC)CC1 [POZIOTINIB]	> 30 µM (inactive)	> 30 µM (inactive)	> 30 µM (inactive)	1.19 µM (active)	–	> 30 µM (inactive)	> 30 µM (inactive)	> 30 µM (inactive)	–	–	–
CN1CC[C@@H](c2c(O)cc(O)c3c(=O)cc(-c4ccccc4Cl)oc23)[C@@H]1CO	> 30 µM (inactive)	> 30 µM (inactive)	> 30 µM (inactive)	> 30 µM (inactive)	> 30 µM (inactive)	–	> 30 µM (inactive)	> 30 µM (inactive)	> 30 µM (inactive)	> 30 µM (inactive)	> 30 µM (inactive)
O=C(c1ccc(F)c(F)c1Nc1ccc(I)cc1F)N1CC(O)([C@@H]2CCCCN2)C1 [COBIMETINIB]	> 30 µM (inactive)	> 30 µM (inactive)	> 30 µM (inactive)	> 30 µM (inactive)	> 30 µM (inactive)	> 30 µM (inactive)	> 30 µM (inactive)	> 30 µM (inactive)	> 30 µM (inactive)	> 30 µM (inactive)	–
COC(=O)[C@@]1(O)C[C@H]2O[C@]1(C)n1c3ccccc3c3c4c(c5c6ccccc6n2c5c31)C(=O)NC4 [K-252A]	2.14 µM (active)	> 30 µM (inactive)	–	–	> 30 µM (inactive)	> 30 µM (inactive)	15.3 µM (active)	> 30 µM (inactive)	0.353 µM (active)	0.003 µM	–
Cc1ccc(-n2nc(C(C)(C)C)cc2NC(=O)NCc2cc(F)ccc2Oc2ccc3c(cnn3CCO)c2)cc1 [PEXMETINIB]	> 30 µM (inactive)	> 30 µM (inactive)	> 30 µM (inactive)	1.2 µM (active)	> 30 µM (inactive)	–	> 30 µM (inactive)	–	> 30 µM (inactive)	> 30 µM (inactive)	> 30 µM (inactive)
